Laboratory results as given in ChEMBL document CHEMBL1201862, “PubChem BioAssay data set” (2004).
Activity calls are given as the source filed them.

Experiments:
[1] = target: Ras and Rab interactor 1/Tyrosine-protein kinase ABL1 (Homo sapiens, UniProt P00519+Q13671); format: functional;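 further: biochemical TR-FRET dose-response test measuring inhibition of binding between Rin1 and Abl proteins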
[2] = target: T1, Histone-lysine N-methyltransferase NSD2 (Homo sapiens, UniProt O96028); format: biochemical
T1 sequence (O96028 whole entry): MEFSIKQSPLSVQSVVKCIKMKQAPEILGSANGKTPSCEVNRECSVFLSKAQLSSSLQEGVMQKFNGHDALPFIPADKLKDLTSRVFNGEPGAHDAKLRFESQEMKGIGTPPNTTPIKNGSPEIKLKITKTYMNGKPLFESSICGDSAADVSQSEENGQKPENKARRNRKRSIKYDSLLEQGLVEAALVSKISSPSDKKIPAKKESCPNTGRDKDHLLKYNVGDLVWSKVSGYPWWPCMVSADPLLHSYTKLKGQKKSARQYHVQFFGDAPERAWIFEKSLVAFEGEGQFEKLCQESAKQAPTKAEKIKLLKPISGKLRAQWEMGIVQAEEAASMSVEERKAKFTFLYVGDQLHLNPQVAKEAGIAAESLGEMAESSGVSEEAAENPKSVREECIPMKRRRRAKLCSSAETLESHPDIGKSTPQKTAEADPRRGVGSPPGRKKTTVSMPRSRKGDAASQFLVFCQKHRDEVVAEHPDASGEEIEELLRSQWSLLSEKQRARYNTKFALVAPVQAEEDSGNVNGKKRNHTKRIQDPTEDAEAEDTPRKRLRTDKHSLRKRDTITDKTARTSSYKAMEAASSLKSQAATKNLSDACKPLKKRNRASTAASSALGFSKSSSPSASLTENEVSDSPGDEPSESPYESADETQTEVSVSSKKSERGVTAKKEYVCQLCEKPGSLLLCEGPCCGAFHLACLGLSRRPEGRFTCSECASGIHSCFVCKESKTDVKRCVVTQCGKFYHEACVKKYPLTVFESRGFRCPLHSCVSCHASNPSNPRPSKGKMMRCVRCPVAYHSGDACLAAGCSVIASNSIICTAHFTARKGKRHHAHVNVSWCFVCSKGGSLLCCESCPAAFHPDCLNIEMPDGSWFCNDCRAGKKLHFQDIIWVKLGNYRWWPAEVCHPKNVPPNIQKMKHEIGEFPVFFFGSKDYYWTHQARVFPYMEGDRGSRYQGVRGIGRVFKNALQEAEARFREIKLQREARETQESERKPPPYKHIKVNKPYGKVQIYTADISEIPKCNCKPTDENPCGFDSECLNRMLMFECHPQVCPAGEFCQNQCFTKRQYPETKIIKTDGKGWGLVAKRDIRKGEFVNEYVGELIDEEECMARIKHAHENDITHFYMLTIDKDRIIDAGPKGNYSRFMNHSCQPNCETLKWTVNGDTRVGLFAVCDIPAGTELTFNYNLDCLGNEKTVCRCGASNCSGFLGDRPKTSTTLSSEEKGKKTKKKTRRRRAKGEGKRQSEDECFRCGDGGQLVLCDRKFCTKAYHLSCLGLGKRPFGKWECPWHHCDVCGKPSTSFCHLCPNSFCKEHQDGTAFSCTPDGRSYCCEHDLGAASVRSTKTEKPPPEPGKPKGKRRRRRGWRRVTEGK

[3] = non-specific 3'UTR reporter inhibition in Clone20-Shn3RL – cell-based, Renilla luciferase, cherry-picked, counter-screen for Shn3 inhibitor project, dose response (AID 624133); format: functional
[4] = loss of viability in HepG2 cells – cell-based, CellTiter-Glo, cherry-picked, cytotoxicity control for Shn3 inhibitor project, dose response (AID 624134); format: functional
[5] = target: T2, COUP transcription factor 2 (Homo sapiens, UniProt P24468); assay: Luminescence-based cell-based high throughput dose response assay to identify inhibitors of COUP-TFII (NR2F2).; format: functional;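 further: HEK293 cells transiently cotransfected with COUP-TFII expression vector and reporter; luciferase reporter luminescence driven by COUP-TFII from the pX2-168 reporter plasmid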
T2 sequence (P24468 whole entry): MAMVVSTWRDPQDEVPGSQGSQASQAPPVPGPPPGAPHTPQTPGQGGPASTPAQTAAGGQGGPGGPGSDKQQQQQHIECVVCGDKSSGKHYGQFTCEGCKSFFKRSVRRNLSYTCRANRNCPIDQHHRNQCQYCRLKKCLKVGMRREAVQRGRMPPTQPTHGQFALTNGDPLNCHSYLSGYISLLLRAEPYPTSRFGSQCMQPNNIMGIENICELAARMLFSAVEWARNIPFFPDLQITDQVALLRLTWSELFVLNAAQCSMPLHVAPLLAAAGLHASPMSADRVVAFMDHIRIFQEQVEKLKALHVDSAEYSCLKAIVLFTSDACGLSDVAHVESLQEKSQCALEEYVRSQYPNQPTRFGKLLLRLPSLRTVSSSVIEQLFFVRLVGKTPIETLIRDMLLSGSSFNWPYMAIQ

[6] = reduction of Shn3 3'UTR-driven luciferase in osteoblasts – cell-based, Clone20 osteoblasts, firefly luciferase, cherry-picked, dose response (AID 624132); format: functional;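 further: firefly luciferase luminescence from reporter carrying the Shn3 3'UTR in osteoblasts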
Protein Wnt-3a = Protein Wnt-3a (Mus musculus, UniProt P27467); assay: antagonism of Wnt3a pathway luciferase reporter – Wnt-LIGHT cells, luminescence, selectivity assay for Gli-SUFU antagonist project, dose response (AID 651570); format: functional; details: read-out: IC50_Mean;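 further: Wnt-LIGHT reporter cells stimulated with conditioned medium from Wnt3a-producing cells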
[7] = (§1) Counterscreen for antagonists of the orexin 1 receptor (OX1R; HCRTR1): Fluorescence-based cell-based high throughput dose response assay to identify antagonists of the parental CHO cell line. [Related pubchem assays (depositor defined):AID434989, AID435008, AID463079, AID485270, AID492963, AID492964, AID492965, AID493232, AID504699, AID504701]; format: functional
[8] = Luminescence Cell-Based Dose Confirmation HTS to Identify Inhibitors of Platelet Dense Granule Release. [Related pubchem assays: 1663 (Primary HTS), 1678 (Summary of Project)]; format: functional
Orexin receptor type 2 [9] = target: T3, Orexin receptor type 2 (Homo sapiens, UniProt O43614); assay: Counterscreen assay for antagonists of the orexin 1 receptor (OX1R; HCRTR1): Homogeneous Time Resolved Fluorescence (HTRF)-based cell-based dose response assay for antagonists of the orexin 2 receptor (OX2R; HCRTR2), run by assay provider.; format: functional
T3 sequence (O43614 whole entry): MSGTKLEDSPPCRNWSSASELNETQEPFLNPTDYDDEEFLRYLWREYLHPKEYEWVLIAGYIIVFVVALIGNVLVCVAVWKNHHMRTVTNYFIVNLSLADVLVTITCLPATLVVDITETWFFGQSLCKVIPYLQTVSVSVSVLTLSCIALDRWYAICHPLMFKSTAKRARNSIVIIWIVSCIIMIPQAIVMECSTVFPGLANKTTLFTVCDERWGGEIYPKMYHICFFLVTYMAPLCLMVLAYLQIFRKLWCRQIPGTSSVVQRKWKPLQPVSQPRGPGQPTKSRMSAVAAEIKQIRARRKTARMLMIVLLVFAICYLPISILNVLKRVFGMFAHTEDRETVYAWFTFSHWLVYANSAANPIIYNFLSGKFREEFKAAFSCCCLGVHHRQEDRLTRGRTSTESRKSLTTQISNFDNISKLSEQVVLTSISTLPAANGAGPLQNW

Orexin receptor type 2 [10] = target: T3, Orexin receptor type 2; assay: Counterscreen assay for antagonists of the orexin 1 receptor (OX1R; HCRTR1): Fluorescence-based cell-based dose response assay for antagonists of the orexin 2 receptor (OX2R; HCRTR2), run by assay provider.; format: functional
CHO-K1 = assay: as §1, with “Homogeneous time resolved fluorescence (HTRF)-based” for “Fluorescence-based”, “cell-based” for “cell-based high throughput”, “CHO-K1” for “CHO”; format: functional; details: Cricetulus griseus;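 further: potency for inhibition of ATP-stimulated IP1 production as antagonists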
[11] = target: T4, Orexin/Hypocretin receptor type 1 (Homo sapiens, UniProt O43613); assay: Homogeneous Time Resolved Fluorescence (HTRF)-based cell-based high throughput dose response assay for antagonists of the orexin 1 receptor (OX1R; HCRTR1). [Related pubchem assays (depositor defined):AID434989, AID435008, AID463079, AID485270, AID492963, AID492964, AID492965, AID493232, AID504717, AID504718]; format: functional
T4 sequence (O43613 whole entry): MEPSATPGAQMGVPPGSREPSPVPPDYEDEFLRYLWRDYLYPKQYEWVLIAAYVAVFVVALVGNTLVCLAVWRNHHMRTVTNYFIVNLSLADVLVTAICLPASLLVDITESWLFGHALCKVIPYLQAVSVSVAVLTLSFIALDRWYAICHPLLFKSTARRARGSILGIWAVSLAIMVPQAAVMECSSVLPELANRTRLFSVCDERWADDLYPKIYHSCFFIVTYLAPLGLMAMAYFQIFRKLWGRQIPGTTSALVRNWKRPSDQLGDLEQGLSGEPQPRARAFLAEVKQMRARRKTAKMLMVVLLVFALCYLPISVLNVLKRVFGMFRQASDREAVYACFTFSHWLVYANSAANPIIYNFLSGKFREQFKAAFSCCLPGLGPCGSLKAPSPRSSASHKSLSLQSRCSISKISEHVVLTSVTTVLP

[12] = target: T4, Orexin/Hypocretin receptor type 1; assay: Fluorescence-based cell-based high throughput dose response assay for antagonists of the orexin 1 receptor (OX1R; HCRTR1). [Related pubchem assays (depositor defined):AID434989, AID435008, AID463079, AID485270, AID492963, AID492964, AID492965, AID493232, AID504717, AID504718]; format: functional
[13] = viability loss in HepG2 hepatoma cells – cell-based, ATP luminescence, cherry-pick, activator set 2, cytotoxicity control, dose response (AID 1053143); format: functional
[14] = target: Luciferin 4-monooxygenase (Photinus pyralis, UniProt P08659); assay: inhibition of purified Photinus pyralis luciferase – biochemical, luminescence, dose response (AID 1891)
[15] = target: T5, Tyrosyl-DNA phosphodiesterase 2 (Homo sapiens, UniProt O95551); assay: potency against TDP2 phosphodiesterase activity – biochemical, epi absorbance, IC50, dose response (AID 743297)
T5 sequence (O95551 whole entry): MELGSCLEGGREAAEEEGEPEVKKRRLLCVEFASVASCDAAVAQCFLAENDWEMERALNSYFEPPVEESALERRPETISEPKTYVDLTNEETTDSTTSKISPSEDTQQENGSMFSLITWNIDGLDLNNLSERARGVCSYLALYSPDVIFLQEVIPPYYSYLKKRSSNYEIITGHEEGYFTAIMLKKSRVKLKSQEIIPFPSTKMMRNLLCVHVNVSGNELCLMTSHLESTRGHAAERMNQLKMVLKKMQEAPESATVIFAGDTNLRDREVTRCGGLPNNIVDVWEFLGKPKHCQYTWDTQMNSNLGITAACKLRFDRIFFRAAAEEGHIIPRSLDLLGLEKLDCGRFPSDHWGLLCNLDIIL

[16] = target: Mitochondrial peptide methionine sulfoxide reductase (Bos taurus, UniProt P54149); assay: Absorbance-based biochemical high throughput dose response assay for activators of Methionine sulfoxide reductase A (MsrA).; format: functional
[17] = target: T6, RNA-editing ligase 1, mitochondrial (Trypanosoma brucei brucei, UniProt P86926); assay: inhibition of trypanosome RNA editing ligase – biochemical, fluorescence, Trypanosoma brucei, dose response (AID 1117295); format: functional
T6 sequence (P86926 whole entry): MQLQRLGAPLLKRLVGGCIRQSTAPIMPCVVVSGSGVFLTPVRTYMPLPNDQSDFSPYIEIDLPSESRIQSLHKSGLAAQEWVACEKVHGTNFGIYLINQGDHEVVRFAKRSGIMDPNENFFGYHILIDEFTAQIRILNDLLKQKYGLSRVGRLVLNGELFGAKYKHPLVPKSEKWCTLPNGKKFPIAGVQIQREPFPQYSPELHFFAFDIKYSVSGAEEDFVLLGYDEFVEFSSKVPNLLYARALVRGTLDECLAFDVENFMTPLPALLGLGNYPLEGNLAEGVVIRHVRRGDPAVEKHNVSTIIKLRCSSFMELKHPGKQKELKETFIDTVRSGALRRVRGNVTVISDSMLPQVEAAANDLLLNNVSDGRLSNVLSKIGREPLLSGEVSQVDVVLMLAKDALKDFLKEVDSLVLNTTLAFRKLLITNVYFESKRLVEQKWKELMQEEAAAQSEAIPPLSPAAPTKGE

[18] = target: Heat shock protein HSP 90-alpha (Homo sapiens, UniProt P07900); format: functional, organism-based

Chain of Ras and Rab interactor 1/Tyrosine-protein kinase ABL1 (P00519 whole entry): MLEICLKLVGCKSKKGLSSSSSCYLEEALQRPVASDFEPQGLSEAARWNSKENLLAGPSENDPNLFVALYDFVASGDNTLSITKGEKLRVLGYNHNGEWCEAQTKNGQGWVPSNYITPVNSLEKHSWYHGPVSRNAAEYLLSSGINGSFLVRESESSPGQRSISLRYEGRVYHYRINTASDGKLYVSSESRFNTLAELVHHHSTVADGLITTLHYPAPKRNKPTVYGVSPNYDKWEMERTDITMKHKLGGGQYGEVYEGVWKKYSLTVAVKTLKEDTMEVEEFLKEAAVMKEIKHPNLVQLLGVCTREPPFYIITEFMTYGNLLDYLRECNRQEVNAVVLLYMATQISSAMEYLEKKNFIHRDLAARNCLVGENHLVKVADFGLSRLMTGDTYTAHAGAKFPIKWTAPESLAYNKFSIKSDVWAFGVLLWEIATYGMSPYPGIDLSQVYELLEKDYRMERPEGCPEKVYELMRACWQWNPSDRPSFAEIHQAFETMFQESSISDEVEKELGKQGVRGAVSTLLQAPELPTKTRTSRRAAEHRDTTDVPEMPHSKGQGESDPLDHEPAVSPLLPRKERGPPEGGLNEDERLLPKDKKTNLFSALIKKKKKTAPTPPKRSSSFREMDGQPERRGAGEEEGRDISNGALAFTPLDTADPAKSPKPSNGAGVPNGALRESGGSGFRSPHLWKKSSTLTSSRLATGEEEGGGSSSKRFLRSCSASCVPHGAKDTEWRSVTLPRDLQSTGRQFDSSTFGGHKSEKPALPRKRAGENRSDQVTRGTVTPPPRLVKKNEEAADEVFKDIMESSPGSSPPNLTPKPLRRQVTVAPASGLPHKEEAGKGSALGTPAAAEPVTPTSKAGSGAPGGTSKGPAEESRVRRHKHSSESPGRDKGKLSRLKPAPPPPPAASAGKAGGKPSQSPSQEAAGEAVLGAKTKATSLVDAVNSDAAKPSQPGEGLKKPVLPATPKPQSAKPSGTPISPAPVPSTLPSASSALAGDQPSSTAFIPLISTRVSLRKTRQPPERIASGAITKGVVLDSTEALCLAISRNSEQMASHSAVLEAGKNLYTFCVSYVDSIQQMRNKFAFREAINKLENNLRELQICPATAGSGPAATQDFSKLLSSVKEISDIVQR
Chain of Ras and Rab interactor 1/Tyrosine-protein kinase ABL1 (Q13671 whole entry): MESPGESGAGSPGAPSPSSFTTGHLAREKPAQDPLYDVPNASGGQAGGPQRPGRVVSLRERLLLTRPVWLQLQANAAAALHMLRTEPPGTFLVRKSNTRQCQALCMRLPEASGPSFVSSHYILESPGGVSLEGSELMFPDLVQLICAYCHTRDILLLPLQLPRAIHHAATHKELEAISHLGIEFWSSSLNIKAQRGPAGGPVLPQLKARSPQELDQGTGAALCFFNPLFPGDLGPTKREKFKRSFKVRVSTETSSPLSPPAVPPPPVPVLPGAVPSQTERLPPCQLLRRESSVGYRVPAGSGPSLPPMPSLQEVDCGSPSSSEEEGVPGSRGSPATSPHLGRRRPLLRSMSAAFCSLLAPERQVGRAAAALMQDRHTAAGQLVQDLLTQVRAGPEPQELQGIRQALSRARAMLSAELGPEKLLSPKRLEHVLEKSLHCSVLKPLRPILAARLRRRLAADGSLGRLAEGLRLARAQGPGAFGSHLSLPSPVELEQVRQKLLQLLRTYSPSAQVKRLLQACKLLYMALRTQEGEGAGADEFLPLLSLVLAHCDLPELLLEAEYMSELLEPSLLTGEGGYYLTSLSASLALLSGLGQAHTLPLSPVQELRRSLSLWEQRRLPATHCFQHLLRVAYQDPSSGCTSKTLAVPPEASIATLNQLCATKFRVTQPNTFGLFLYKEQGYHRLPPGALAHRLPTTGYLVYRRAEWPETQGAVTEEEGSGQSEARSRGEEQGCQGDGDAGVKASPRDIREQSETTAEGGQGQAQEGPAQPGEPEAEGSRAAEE
Chain of Mitochondrial peptide methionine sulfoxide reductase (P54149 whole entry): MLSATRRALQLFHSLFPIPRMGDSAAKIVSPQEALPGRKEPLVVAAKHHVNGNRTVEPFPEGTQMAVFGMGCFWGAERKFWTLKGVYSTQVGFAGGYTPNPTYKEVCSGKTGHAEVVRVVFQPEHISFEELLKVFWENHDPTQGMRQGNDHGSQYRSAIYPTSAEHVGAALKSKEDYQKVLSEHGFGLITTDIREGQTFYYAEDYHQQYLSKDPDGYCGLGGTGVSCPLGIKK
Chain of Luciferin 4-monooxygenase (P08659 whole entry): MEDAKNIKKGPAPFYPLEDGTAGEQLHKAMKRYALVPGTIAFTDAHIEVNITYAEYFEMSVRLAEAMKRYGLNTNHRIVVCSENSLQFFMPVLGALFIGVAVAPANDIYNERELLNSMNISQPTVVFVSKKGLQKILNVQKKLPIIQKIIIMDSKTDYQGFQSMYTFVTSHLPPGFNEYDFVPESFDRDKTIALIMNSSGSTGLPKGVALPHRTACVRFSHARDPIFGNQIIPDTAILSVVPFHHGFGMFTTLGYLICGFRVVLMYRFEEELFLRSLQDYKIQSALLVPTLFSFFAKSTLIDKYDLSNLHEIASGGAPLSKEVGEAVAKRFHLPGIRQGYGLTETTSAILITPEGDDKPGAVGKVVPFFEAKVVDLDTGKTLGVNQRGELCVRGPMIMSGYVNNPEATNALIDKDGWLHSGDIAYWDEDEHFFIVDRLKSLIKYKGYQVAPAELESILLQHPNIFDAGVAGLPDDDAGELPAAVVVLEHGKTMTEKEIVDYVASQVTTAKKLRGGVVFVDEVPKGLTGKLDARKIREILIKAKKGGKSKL
Chain of Protein Wnt-3a (P27467 whole entry): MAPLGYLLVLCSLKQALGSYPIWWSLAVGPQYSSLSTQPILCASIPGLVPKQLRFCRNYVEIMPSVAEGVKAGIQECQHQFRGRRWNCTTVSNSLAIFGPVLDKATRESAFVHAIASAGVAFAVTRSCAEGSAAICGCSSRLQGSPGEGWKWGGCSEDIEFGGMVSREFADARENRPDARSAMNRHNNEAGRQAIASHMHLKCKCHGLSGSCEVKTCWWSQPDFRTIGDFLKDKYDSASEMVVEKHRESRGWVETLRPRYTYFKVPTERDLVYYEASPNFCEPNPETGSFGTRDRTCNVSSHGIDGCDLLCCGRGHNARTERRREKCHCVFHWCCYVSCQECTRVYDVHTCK

With CCOC(=O)CCCCC(=O)c1[nH]c(O)nc1CSc1nc2ccccc2[nH]1 the IC50 [1] was 0.0967 µM (active) and the AC50 [2] was 7.6 µM (active).

For CC1C(OC(=O)CCC(=O)NC(C)(C)CO)O[C@H]2OC3(C)CC[C@H]4[C@H](C)CCC1C24OO3 (some centres not stated), the AC50 [3] was 0.841 µM (active), the AC50 [4] was > 70 µM (inactive) and the IC50 [5] was > 85.4 µM (inactive). For the same molecule, the AC50 [6] was 0.495 µM (active) and the IC50 (Protein Wnt-3a) was 0.794 µM (active).

With COc1cccc2oc3ccc(C#Cc4ccccn4)cc3c(=O)c12 the IC50 [7] was > 49.8 µM (inactive), the EC50 [8] was 5.1 µM (active) and the IC50 (Orexin receptor type 2 [9]) was 0.82 µM (active). The IC50 (Orexin receptor type 2 [10]) was > 88.8 µM (inactive), the IC50 (CHO-K1) was > 66.2 µM (inactive) and the IC50 [11] was 0.881 µM (active). The IC50 [12] was 13.5 µM (inactive), the AC50 [13] was 16.4 µM (active) and the EC50 [14] was 1.19 µM (active).

With Cn1c(=O)c2c(nc(-n3ccnc3)n2Cc2ccc(Cl)cc2Cl)n(C)c1=O the IC50 [1] was 2.62 µM (active).

For CCOC(=O)N1CCN(C(=O)CSc2ccc(-c3ccccc3)nn2)CC1, the IC50 [7] was > 49.7 µM (inactive), the IC50 (Orexin receptor type 2 [9]) was > 50 µM (inactive) and the IC50 (Orexin receptor type 2 [10]) was > 88.8 µM (inactive). The IC50 (CHO-K1) was > 66.2 µM (inactive), the IC50 [11] was 2.12 µM (active) and the IC50 [12] was 16.3 µM (inactive).

In the case of COC1=CC(=O)c2nc(Cl)ccc2C1=O, the IC50 [15] is reported as 4.46 µM (active), the EC50 [16] is reported as 44.4 µM (inactive) and the IC50 [17] is reported as 28.3 µM (inactive). The AC50 [2] was 4.32 µM (active).

With Cc1c(CCCl)c(Cl)n2c(nc3ccccc32)c1C#N the AC50 [18] was 3.86 µM (active), the AC50 [3] was 2.98 µM (active) and the AC50 [4] was 8.13 µM (active). The AC50 [6] was 0.912 µM (active).

With Cc1noc(C)c1COc1ccc(C(=O)OCC(=O)N2CC(=O)Nc3ccccc32)cc1 the IC50 [7] was > 49.8 µM (inactive), the IC50 (Orexin receptor type 2 [9]) was > 50 µM (inactive) and the IC50 (Orexin receptor type 2 [10]) was > 88.8 µM (inactive). The IC50 (CHO-K1) was > 66.2 µM (inactive), the IC50 [11] was 14.9 µM (inactive) and the IC50 [12] was 0.861 µM (active).
